Results on 24 molecules are retold here after ChEMBL document CHEMBL1132546, “Na(+)-glucose cotransporter (SGLT) inhibitors as antidiabetic agents. 4. Synthesis and pharmacological properties of 4'-dehydroxyphlorizin derivatives substituted on the B ring” (1999).

Structures are written as SMILES.

The assay is described as follows: Compound was tested for urinary glucose excretion (mg/24 h) at 100 mg/Kg dose of compound given perorally. Type of assay: functional, Rattus norvegicus, Urine. On the set-up: unit: mg/24 h.
The molecule `CC(=O)OC[C@H]1O[C@@H](Oc2cc(C)cc(OC(C)=O)c2C(=O)CCc2ccc3occc3c2)[C@H](O)[C@@H](O)[C@@H]1O` had a Urinary glucose excretion of 183.

`O=C(CCc1ccc2occc2c1)c1c(O)cccc1O[C@@H]1O[C@H](CO)[C@@H](O)[C@H](O)[C@H]1O`: the Urinary glucose excretion amounted to 321. As for `CC(=O)Oc1cc(C)cc(O[C@@H]2O[C@H](CO)[C@@H](O)[C@H](OC(C)=O)[C@H]2OC(C)=O)c1C(=O)CCc1ccc2occc2c1`, the Urinary glucose excretion is on record as 1450.

In the case of `O=C(CCc1ccc2occc2c1)c1c(O)c(Cl)cc(Cl)c1O[C@@H]1O[C@H](CO)[C@@H](O)[C@H](O)[C@H]1O`, the Urinary glucose excretion worked out at 5. Regarding `C=CCc1ccc(O[C@@H]2O[C@H](CO)[C@@H](O)[C@H](O)[C@H]2O)c(C(=O)CCc2ccc3occc3c2)c1O`, the Urinary glucose excretion stood at 5.

As to `Cc1ccc(O)c(C(=O)CCc2ccc3occc3c2)c1O[C@@H]1O[C@H](CO)[C@@H](O)[C@H](O)[C@H]1O`, the Urinary glucose excretion came to 5.

On to `CC(C)c1cc(O)c(C(=O)CCc2ccc3occc3c2)c(O[C@@H]2O[C@H](CO)[C@@H](O)[C@H](O)[C@H]2O)c1`, for which the Urinary glucose excretion is 128. In the case of `COc1cc(O)c(C(=O)CCc2ccc3occc3c2)c(O[C@@H]2O[C@H](CO)[C@@H](O)[C@H](O)[C@H]2O)c1` it was 38; in that of `CC(=O)O[C@H]1[C@H](Oc2cc(C)cc(O)c2C(=O)CCc2ccc3occc3c2)O[C@H](CO)[C@@H](O)[C@@H]1O`, 482. Consider `COCC(=O)OC[C@H]1O[C@@H](Oc2cc(C)cc(O)c2C(=O)CCc2ccc3occc3c2)[C@H](O)[C@@H](O)[C@@H]1O`, for which the Urinary glucose excretion was 721.

For the molecule `CC(=O)O[C@H]1[C@H](Oc2cc(C)cc(O)c2C(=O)CCc2ccc3occc3c2)O[C@H](CO)[C@@H](O)[C@@H]1OC(C)=O`, the Urinary glucose excretion is on record as 349. Consider `CC(=O)OC[C@H]1O[C@@H](Oc2cc(C)cc(O)c2C(=O)CCc2ccc3occc3c2)[C@H](O)[C@@H](O)[C@@H]1O`, for which the Urinary glucose excretion is 540. `CCc1ccc(O[C@@H]2O[C@H](CO)[C@@H](O)[C@H](O)[C@H]2O)c(C(=O)CCc2ccc3occc3c2)c1O` came in with a Urinary glucose excretion of 1. In turn, `COC1(C)OC[C@H]2O[C@@H](Oc3cc(C)cc(O)c3C(=O)CCc3ccc4occc4c3)[C@H](O)[C@@H](O)[C@@H]2O1` (some centres undefined) displayed a Urinary glucose excretion of 729.

Molecule `COC(=O)O[C@H]1[C@H](O)[C@@H](O)[C@H](Oc2cc(C)cc(O)c2C(=O)CCc2ccc3occc3c2)O[C@@H]1CO` showed a Urinary glucose excretion of 1407. Turning to `COCCOC(=O)OC[C@H]1O[C@@H](Oc2cc(C)cc(O)c2C(=O)CCc2ccc3occc3c2)[C@H](O)[C@@H](O)[C@@H]1O`, the Urinary glucose excretion is reported as 817. Consider `Cc1cc(O)c(C(=O)CCc2ccc3occc3c2)c(O[C@@H]2O[C@H](COC(=O)OC(C)C)[C@@H](O)[C@H](O)[C@H]2O)c1`, for which the Urinary glucose excretion was 980. As for `O=C(CCc1ccc2occc2c1)c1c(O)cc(Cl)cc1O[C@@H]1O[C@H](CO)[C@@H](O)[C@H](O)[C@H]1O`, the Urinary glucose excretion is listed as 8. `O=C(CCc1ccc2occc2c1)c1c(O)cc(O)cc1O[C@@H]1O[C@H](CO)[C@@H](O)[C@H](O)[C@H]1O` displayed a Urinary glucose excretion of 38.

Regarding `CCOC(=O)OC[C@H]1O[C@@H](Oc2cc(C)cc(O)c2C(=O)CCc2ccc3occc3c2)[C@H](O)[C@@H](O)[C@@H]1O`, the Urinary glucose excretion was 805. In the case of `CCCc1cc(O)c(C(=O)CCc2ccc3occc3c2)c(O[C@@H]2O[C@H](CO)[C@@H](O)[C@H](O)[C@H]2O)c1` it was 27. `CCc1cc(O)c(C(=O)CCc2ccc3occc3c2)c(O[C@@H]2O[C@H](CO)[C@@H](O)[C@H](O)[C@H]2O)c1` displayed a Urinary glucose excretion of 864. Molecule `Cc1cc(O)c(C(=O)CCc2ccc3occc3c2)c(O[C@@H]2O[C@H](CO)[C@@H](O)[C@H](O)[C@H]2O)c1` yielded a Urinary glucose excretion of 935.

As to `COC(=O)OC[C@H]1O[C@@H](Oc2cc(C)cc(O)c2C(=O)CCc2ccc3occc3c2)[C@H](O)[C@@H](O)[C@@H]1O`, the Urinary glucose excretion is 1192.
